Earlier results, collected in patent US7632826B2, “Use of agonists of the glucocorticosteroid and/or mineralo-corticosteroid receptors, in particular corticosteroids for the treatment of addiction” (Curamentis Ltd., priority 1998, dated 2009).

SMILES: CC(=O)NCCCS(=O)(=O)O [acamprosate]
- Patients still abstinent (Austria (Whitworth et al., 1996), placebo 21%): 30%
- Patients of the verum group still abstinent at end of study (German part of the study (Sass et al., 1996), after 48 weeks of treatment, placebo 20%): 42%
- Addicted patients who did not achieve permanent abstinence despite treatment (average in Europe, placebo 85%): approximately 70%
